In patent US20110269811A1, “INHIBITORS OF SEMICARBAZIDE-SENSITIVE AMINE OXIDASE (SSAO) AND VAP-1 MEDIATED ADHESION USEFUL FOR TREATMENT AND PREVENTION OF DISEASES” (priority 2006, published 2011) one finds melting point data, which are given here for 37 molecules.

Each structure is given as a SMILES string. Counter-ions that a name gives are not always drawn.

`NC/C(=C\F)CCc1cccc(F)c1.O=C(O)C(F)(F)F`: the melting point was 47 to 48 °C.

Take `NC/C(=C/F)CCc1cccc(F)c1.O=C(O)C(F)(F)F`: the melting point fell in the range of 72 to 73 °C. Then `NC/C(=C/F)CCc1cc(F)cc(C(F)(F)F)c1.O=C(O)C(F)(F)F`, with 58 to 59 °C; and `COc1ccc(C/C(=C\F)CN)cc1OC.Cl`, with 204 to 205 °C; and `COc1ccc(C/C(=C/F)CN)cc1OC.Cl`, with 220 to 221 °C. As for `COc1cccc(CC/C=C(/F)CN)c1.Cl`, the figure is 112 to 113 °C; as for `NCC(=CF)Cc1cccc(O)c1` (as salt: citrate), 145 to 146 °C. Then `CSc1cccc(C/C(=C/F)CN)c1` (as salt: hydrochloride), with 145 to 146 °C; and `Cc1ccc(C/C(=C/F)CN)cc1` (as salt: hydrochloride), with 150 to 151 °C; and `NC/C(=C\F)Cc1ccc(-c2ccccc2)cc1` (as salt: hydrochloride), with 219 to 220 °C.

Turning to `NC/C(=C\F)Cc1ccc(F)cc1` (as salt: hydrochloride), the melting point lay within 139 to 140 °C. Then `NC/C(=C\F)Cc1cccc(C(F)(F)F)c1` (as salt: hydrochloride), with 161 to 162 °C. As for `Cc1ccc(C/C(=C/F)CN)cc1F` (as salt: hydrochloride), the figure is 160 to 161 °C; as for `Cc1cc(C/C(=C/F)CN)ccc1F` (as salt: hydrochloride), 158 to 159 °C. Regarding `NC/C(=C\F)Cc1cc(F)cc(Cl)c1` (as salt: hydrochloride), the melting point fell in the range of 158 to 159 °C.

The molecule `NC/C(=C\F)Cc1ccc(F)cc1F` (as salt: hydrochloride) gave a melting point of 130 to 131 °C.

`NC/C(=C\F)Cc1cc(Cl)cc(Cl)c1` (as salt: hydrochloride): the melting point is 184 to 185 °C. As for `NC/C(=C\F)Cc1ccc(F)c(F)c1` (as salt: hydrochloride), the figure is 141 to 142 °C; as for `NC/C(=C\F)Cc1cccc(Cl)c1` (as salt: hydrochloride), 145 to 146 °C. In the case of `NC/C(=C/Cl)CCc1ccccc1` (as salt: hydrochloride), the melting point fell in the range of 97 to 98 °C.

The molecule `NC/C(=C/Cl)CCc1ccc(C(F)(F)F)cc1` (as salt: hydrochloride) yielded a melting point of 89 to 90 °C.

The molecule `COc1cc(C/C(=C/F)CN)cc(OC)c1` (as salt: hydrochloride) had a melting point of 194 to 195 °C. Then `COCc1cccc(C/C=C(/F)CN)c1` (as salt: hydrochloride), with 165 to 166 °C. Then `Cc1cccc(C/C(=C/F)CN)c1` (as salt: hydrochloride) [Compound I-13, (Z)-3-Fluoro-2-(3-methylbenzyl)allylamine hydrochloride], with 118 to 119 °C; and `COc1ccc(C/C(=C/F)CN)cc1F` (as salt: hydrochloride) [Compound I-21, (Z)-3-Fluoro-2-(3-fluoro-4-methoxybenzyl)allylamine hydrochloride], with 170 °C (dec.).

`NC/C(=C\F)Cc1ccc(F)c(Cl)c1` (as salt: hydrochloride) [Compound I-23, (Z)-3-Fluoro-2-(3-chloro-4-fluorobenzyl)allylamine hydrochloride] had a melting point of 163 to 164 °C. As for `NC/C(=C\F)Cc1cc(F)ccc1F` (as salt: hydrochloride) [Compound I-24, (Z)-3-Fluoro-2-(2,5-difluorobenzyl)allylamine hydrochloride], the figure is 105 to 106 °C. As for `COc1ccc(CC/C(=C/Cl)CN)cc1` (as salt: hydrochloride) [Compound I-33, (Z)-3-Chloro-2-(4-methoxyphenylethyl)allylamine hydrochloride], the figure is 123 to 124 °C; as for `CCOc1ccc(CC/C(=C/Cl)CN)cc1` (as salt: hydrochloride) [Compound I-34, (Z)-3-Chloro-2-(4-ethoxyphenylethyl)allylamine hydrochloride], 160 to 162 °C; as for `CCCCOc1ccc(CC/C(=C/Cl)CN)cc1` (as salt: hydrochloride) [Compound I-36, (Z)-3-Chloro-2-(4-n-butoxyphenylethyl)allylamine hydrochloride], 133 to 134 °C. As for `Cc1cccc(CC/C(=C/Cl)CN)c1` (as salt: hydrochloride) [Compound I-37, (Z)-3-Chloro-2-(3-methylphenylethyl)allylamine hydrochloride], the figure is 102 to 103 °C; as for `COc1cccc(CC/C(=C/Cl)CN)c1` (as salt: hydrochloride) [Compound I-38, (Z)-3-Chloro-2-(3-methoxyphenylethyl)allylamine hydrochloride], 139 to 140 °C; as for `NC/C(F)=C\Cc1cccc(C(F)(F)F)c1` (as salt: hydrochloride) [II-2, (E)-2-Fluoro-4-(3-trifluoromethylphenyl)-2-butenylamine hydrochloride], 145 to 147 °C.

`CS(=O)(=O)c1ccc(C/C(=C/F)CN)cc1` (as salt: trifluoroacetate) had a melting point of 49 to 50 °C. As for `NC/C(=C\Cl)CCc1ccc(F)cc1` (as salt: trifluoroacetate), the figure is 69 to 70 °C. As for `NC/C(=C\Cl)CCc1ccc(Cl)cc1` (as salt: trifluoroacetate), the figure is 89 to 90 °C; as for `COc1cccc(C(C)/C=C(/F)CN)c1.Cl` (stereo not shown) [II-18-E], 133 to 134 °C.

The melting point is the temperature of the solid-liquid transition.
